Results from patent publication US20250290034A1, “METHOD FOR PRODUCING NAÏVE PLURIPOTENT STEM CELLS” (KYOTO UNIVERSITY, priority 2022, published 2025).

Experiments:
H9EOS cells = test: Chemical resetting of primed H9EOS cells to naive state; EGFP-positive cells quantified on Day 14 by flow cytometry; type: cell-based, human; details: for BMP activation judged from resetting efficiency standardized to Chemical only: 1, 5 or 10 μM added to VPA-containing cRM-1 on Days 3-5 (FIG. 10, 11); for resetting efficiency with respect to chemical: VPA-free cRM-1, miR-98-5p transfected Day 1 combined with BMP2 or BMP4 added Day 2 (FIG. 12)
Procedure: After collecting H9EOS and H9EOS (NK) cells and measuring the cell count in the same manner as for subculturing, they were diluted with AK02N medium containing Y-27632 (Nacalai Tesque, 08945-84) and iMatrix-511 silk (Nippi, 387-10131) (culture medium for primed pluripotent stem cells) and seeded on a multiwell plate (modified method of G. Guo, et. al., 144, 2748-2763 (2017)). The medium was exchanged with AK02N on Day 1, with culturing in cRM-1 (NDiff 227 (Takara, Y40002) containing 1 μM PD0325901, 10 ng/ml hLIF, 1 mM VPA) or VPA-free cRM-1 (culture medium for naive pluripotent stem cells) from Day 2 to Day 5, followed by culturing up to Day 14 in cRM-2 (NDiff 227 containing 1 μM PD0325901, 10 ng/ml hLIF, 2 μM Go6983, 2 μM XAV939). The resetting efficiency was quantified by counting the cell count using a flow cytometer, with the EGFP-expressing cells as naive cells.
The mimic used for each miRNA was mirVana miRNA Mimic (Thermo Fisher Scientific). A control, mirVana miRNA Mimic, Negative Control (Thermo Fisher Scientific, 4464058) was also used. Introduction was carried out on either Day 1, 2, 3 or 4, or a combination thereof, during the normal course of resetting, using Lipofectamine RNAiMAX Transfection Reagent (Thermo Fisher Scientific, 13778075) as the miRNA mimic. Culturing was then carried out according to common resetting protocol, and the EGFP-positive cells were quantified on Day 14 using a flow cytometer.
On Day 1 of the resetting protocol shown in FIG. 2, the 22 plasmids were used, either alone or as a mixture of the 22 plasmids minus one each, for transfection together with the transposase-expressing plasmid (pCAG-PBase), using Lipofectamine Stem Transfection Reagent (Thermo Fisher Scientific, STEM00003). Doxycycline was added at a final concentration of 250 ng/ml to cRM-1 on Days 2 to 5 to induce gene expression. Culturing was then carried out according to common resetting protocol, and the EGFP-positive cells were quantified on Day 14 using a flow cytometer.
[…] 2. Culturing was then carried out according to common resetting protocol, and the EGFP-positive cells were quantified on Day 14 using a flow cytometer.
To cRM-1 containing or not containing VPA there was added 10-100 ng/mL of rhBMP4 (Reprocell, 314-BP-010), on one or more of Days 1 to 5 of the resetting protocol of FIG. 2. Culturing was then carried out according to common resetting protocol, and the EGFP-positive cells were quantified on Day 14 using a flow cytometer.
On Day 1 of the resetting protocol of FIG. 2, one siRNA from among NR6A1, TRIM71, LRIG1, DNMT3B, IGF2BP1, CACHD1, PCDH8, L1TD1, SFRP1, VASH2, LIN28B, USP44, MAPK10, DICER1, DPH3, PRTG, MAPK6, HMGA2, LINC01356 (n491112) and LINC01356 (n549768) (all purchased from Horizon Discovery/Dharmacon) was introduced using Lipofectamine RNAiMAX Transfection Reagent (Thermo Fisher Scientific, 13778075). Culturing was then carried out according to common resetting protocol, and the EGFP-positive cells were quantified on Day 14 using a flow cytometer.

[1] = system: AdiPS iPS cells and H1, H9EOS and H9 ES cells; test: Resetting efficiency by SUSD2 staining and flow cytometry; type: cell-based, human; details: all cell lines; miR-98-5p mimic Day 1 or BMP4 Day 2; VPA-containing cRM-1; Day 14 (FIG. 16)
Procedure: AccuMax was added to the cells on Day 14 of the resetting protocol of FIG. 2, and the mixture was incubated at 37° C. for about 10 to 15 minutes, after which the cells were detached. They were then suspended in 1% BSA-PBS to prevent nonspecific antibody binding, and after 30 minutes of blocking on ice, SUSD2 antibody was mixed with the cell suspension to a final concentration of 1:500, reaction was conducted for 30 minutes on ice and the mixture was rinsed with PBS, after which measurement was performed with a flow cytometer.
FIG. 16 is a graph showing resetting efficiency in culturing with VPA-containing cRM-1, using AdiPS iPS cells and H1, H9EOS and H9 ES cells. With mimic_ctrl and mimic-98-5p, cells were transfected with control mimic or miR-98-5p mimic on Day 1, culturing was carried out in VPA-containing cRM-1 from Day 2 to Day 4, and culturing was in cRM-2 from Day 5 to Day 14. For BMP-4, the BMP4 was added to VPA-containing cRM-1 on Day 2 without transfection of cells with control mimic or miR-98-5p mimic, for culturing up to Day 4, and then culturing was in cRM-2 from Day 5 to Day 14. […]

Molecule: Brc1ccc(CSc2nc3ccccc3o2)cc1 [SB-4]
- BMP activation judged from resetting efficiency standardized to Chemical only (H9EOS cells; H9EOS): capable of activating BMP

Molecule: O=C(/C=C/c1ccc(O)cc1)c1ccc(O)cc1O [isoliquiritigenin]
- BMP activation judged from resetting efficiency standardized to Chemical only (H9EOS cells; H9EOS): capable of activating BMP

Molecule: BMP4: recombinant human bone morphogenetic protein BMP4 (Reprocell, 314-BP-010)
- resetting efficiency (GFP-positive cells) (H9EOS cells; H9EOS transfected with miR-98-5p Day 1, BMP4 added earlier (Day 0/1) with Wnt inhibitor (IWP mix, 1 μM) simultaneously or before, VPA-containing cRM-1 (FIG. 17)): maintaining the resetting efficiency
- resetting efficiency compared to chemical (H9EOS cells; H9EOS, BMP added to medium on Day 2, VPA-containing cRM-1 (FIG. 12)): highly significant increase
- resetting efficiency with respect to chemical (H9EOS cells; H9EOS): increase
- resetting efficiency (H9EOS cells; H9EOS, rhBMP4 added on Day 0 (FIG. 12, 13)): lower
- percentage of SUSD2-positive cells [1]: tended to increase

Molecule: miR-98-5p: let-7 family miRNA mimic (mirVana), sequence UGAGGUAGUAAGUUGUAUUGUU, SEQ ID 1 (listed as RNA, chemistry not given here; listed as Homo sapiens)
- resetting efficiency with respect to chemical (H9EOS cells; H9EOS): increase
- resetting efficiency (H9EOS cells; H9EOS, miR-98-5p transfected Day 1 in addition to BMP2 or BMP4 on Day 2, VPA-containing cRM-1 (FIG. 12)): tended to further increase
- resetting efficiency (EGFP-positive cells) (H9EOS cells; H9EOS, miRNA mimic transfected on Day 1, cRM-1 containing VPA, Day 14 (FIG. 3, FIG. 4)): significantly high
- percentage of SUSD2-positive cells [1]: tended to increase
